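In this assay, cells in 96-well plates receive the compound at five concentrations for 48 hours. Endpoints are linearly interpolated between the surrounding concentrations. GI50: concentration for 50% inhibition of growth. TGI is the concentration that stops growth completely.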
Tests used:
Test in all cases: inhibition of tumour cell growth, NCI panel, 48 h
[1] = tested on: 786-0 renal
[2] = tested on: HCT-116 colon
[3] = tested on: HCC-2998 colon
[4] = tested on: A498 renal
[5] = tested on: NCI-H460 lung
[6] = tested on: UACC-62 melanoma
[7] = tested on: SNB-75 CNS
[8] = tested on: TK-10 renal
[9] = tested on: HOP-92 NSCLC
[10] = tested on: HT29 colon
[11] = tested on: NCI-H522 lung
[12] = tested on: NCI-H23 lung
[13] = tested on: ACHN renal
[14] = tested on: SK-OV-3 ovarian
[15] = tested on: SW-620 colon
[16] = tested on: OVCAR-3 ovarian
[17] = tested on: OVCAR-5 ovarian
[18] = tested on: PC-3 prostate
[19] = tested on: MCF7 breast
[20] = tested on: CCRF-CEM leukemia
[21] = tested on: OVCAR-4 ovarian
[22] = tested on: IGROV1 ovarian
[23] = tested on: DU-145 prostate
[24] = tested on: M14 melanoma
[25] = tested on: A549 NSCLC
[26] = tested on: MDA-MB-231 breast
[27] = tested on: SK-MEL-2 melanoma
[28] = tested on: MALME-3M melanoma
[29] = tested on: SN12C renal
[30] = tested on: COLO 205 colon
[31] = tested on: SK-MEL-5 melanoma
[32] = tested on: HCT-15 colon
[33] = tested on: NCI-H226 lung
[34] = tested on: SR leukemia
[35] = tested on: U251 CNS
[36] = tested on: KM12 colon
[37] = tested on: SF-268 CNS
[38] = tested on: UO-31 renal
[39] = tested on: HL-60(TB) leukemia
[40] = tested on: T-47D breast
[41] = tested on: HOP-62 NSCLC
[42] = tested on: HS 578T breast
[43] = tested on: LOX IMVI melanoma
[44] = tested on: OVCAR-8 ovarian
[45] = tested on: RXF 393 renal
[46] = tested on: RPMI-8226 leukemia
[47] = tested on: MDA-MB-435
[48] = tested on: UACC-257 melanoma
[49] = tested on: SK-MEL-28 melanoma
[50] = tested on: CAKI-1 renal
[51] = tested on: BT-549 breast
[52] = tested on: SF-539 CNS
[53] = tested on: NCI/ADR-RES ovarian
[54] = tested on: SF-295 CNS
[55] = tested on: SNB-19 CNS
[56] = tested on: MOLT-4 leukemia
[57] = tested on: K-562 leukemia

With `Cn1cc(C2=C(Sc3ccccc3)C(=O)NC2=O)c2ccccc21` the GI50 [1] was > 16.4 µM, the TGI [1] was > 25 µM and the GI50 [2] was 7.41 µM. For the same compound, the TGI [2] was > 16.9 µM, the GI50 [3] was > 12.3 µM and the TGI [3] was > 18.2 µM. The GI50 [4] was > 23.1 µM, the TGI [4] was > 25 µM and the GI50 [5] was > 25 µM. The TGI [5] was > 25 µM, the GI50 [6] was > 13.7 µM and the TGI [6] was > 25 µM. For the same compound, the GI50 [7] was > 25 µM, the TGI [7] was > 25 µM and the GI50 [8] was > 13.6 µM. For the same compound, the TGI [8] was > 20.4 µM, the GI50 [9] was 24.5 µM and the TGI [9] was > 25 µM. For the same compound, the GI50 [10] was > 18.7 µM, the TGI [10] was > 25 µM and the GI50 [11] was 3.29 µM. For the same compound, the TGI [11] was 8.44 µM, the GI50 [12] was > 22.2 µM and the TGI [12] was > 25 µM. The GI50 [13] was 6.23 µM, the TGI [13] was > 17.3 µM and the GI50 [14] was > 25 µM. For the same compound, the TGI [14] was > 25 µM, the GI50 [15] was 9.69 µM and the TGI [15] was > 16.5 µM. The GI50 [16] was 9.57 µM, the TGI [16] was > 22.5 µM and the GI50 [17] was > 25 µM. For the same compound, the TGI [17] was > 25 µM, the GI50 [18] was > 25 µM and the TGI [18] was > 25 µM. The GI50 [19] was 7.83 µM, the TGI [19] was > 20.6 µM and the GI50 [20] was 7.7 µM. For the same compound, the TGI [20] was > 25 µM, the GI50 [21] was > 18.3 µM and the TGI [21] was > 25 µM. For the same compound, the GI50 [22] was 10.5 µM, the TGI [22] was > 25 µM and the GI50 [23] was 13.8 µM. The TGI [23] was > 25 µM, the GI50 [24] was 24.2 µM and the TGI [24] was > 25 µM. For the same compound, the GI50 [25] was > 22.4 µM, the TGI [25] was > 25 µM and the GI50 [26] was 12.1 µM. For the same compound, the TGI [26] was > 25 µM, the GI50 [27] was > 13.6 µM and the TGI [27] was > 21.8 µM. The GI50 [28] was > 13.2 µM, the TGI [28] was > 20.2 µM and the GI50 [29] was > 14.9 µM. The TGI [29] was > 25 µM, the GI50 [30] was > 16.2 µM and the TGI [30] was > 25 µM. For the same compound, the GI50 [31] was > 15.1 µM, the TGI [31] was > 25 µM and the GI50 [32] was 7.87 µM. For the same compound, the TGI [32] was > 19.1 µM, the GI50 [33] was > 25 µM and the TGI [33] was > 25 µM. The GI50 [34] was 9.81 µM, the TGI [34] was > 25 µM and the GI50 [35] was > 25 µM. The TGI [35] was > 25 µM, the GI50 [36] was > 25 µM and the TGI [36] was > 25 µM. For the same compound, the GI50 [37] was > 15.2 µM, the TGI [37] was > 25 µM and the GI50 [38] was 8.84 µM. The TGI [38] was > 14.3 µM, the GI50 [39] was 8.4 µM and the TGI [39] was 23.5 µM. For the same compound, the GI50 [40] was 7.56 µM, the TGI [40] was > 17.2 µM and the GI50 [41] was > 25 µM. For the same compound, the TGI [41] was > 25 µM, the GI50 [42] was > 18.2 µM and the TGI [42] was > 25 µM. For the same compound, the GI50 [43] was 4.7 µM, the TGI [43] was 10.2 µM and the GI50 [44] was > 14.2 µM. The TGI [44] was > 25 µM, the GI50 [45] was 7.2 µM and the TGI [45] was > 17.6 µM. For the same compound, the GI50 [46] was 9.19 µM, the TGI [46] was > 25 µM and the GI50 [47] was 10 µM. The TGI [47] was > 25 µM, the GI50 [48] was > 12 µM and the TGI [48] was > 21.2 µM. For the same compound, the GI50 [49] was > 12.8 µM, the TGI [49] was > 22.7 µM and the GI50 [50] was > 18.1 µM. For the same compound, the TGI [50] was > 25 µM, the GI50 [51] was 9.49 µM and the TGI [51] was > 20.7 µM. The GI50 [52] was > 25 µM, the TGI [52] was > 25 µM and the GI50 [53] was > 25 µM. The TGI [53] was > 25 µM, the GI50 [54] was > 25 µM and the TGI [54] was > 25 µM. The GI50 [55] was > 25 µM, the TGI [55] was > 25 µM and the GI50 [56] was 7.9 µM. For the same compound, the TGI [56] was > 25 µM, the GI50 [57] was 12.9 µM and the TGI [57] was > 25 µM.

Source: PubChem BioAssay (NCI)
